According to US7060444B1, “Zone 3 necrosis associated markers and method of use thereof” (CuraGen Corporation, priority 2002, dated 2006):
Like-named read-outs stand apart in the source and are kept apart here.

What was measured:
rat livers [1] = assay: Induction of Zone 3 Necrosis in vivo, liver pathology annotation; conditions: for Zone 3 Necrosis in vivo: Pathology Present: sampled 1, 3, 7, 14 d
Text: (§1) Each compound was delivered orally on a daily basis at a high dose (tox dose) and a 1/10 low dose (mode dose) for up to 14 days. Five male rats/dose/time were randomly assigned to sacrifice on days 1, 3, 7, and 14.
(§2) In order to construct in vivo models, the pathology of each sample had to be determined. Pathology was assigned to each liver sample by the pathologists at Bayer's Stillwell, Kans. facility. Criteria for inclusion of a compound into a particular mode included the following: • i.

rat livers [2] = test system: rat livers
Text: as §1, §2

liver [3] = conditions: rats, through a sequence of events that begin with necrosis; cited from earlier work
liver [4] = conditions: once converted to reactive metabolites; cited from earlier work
liver [5] = assay: In vivo pathology annotation: Hypertrophy; set-up: species or system rat; conditions: in vivo compound annotation
Text: Hypertrophy: Increase in cell size and liver weight. • iv. […] Steatosis: Increase in lipid accumulation or “vacuolar degeneration.” • vii. […] Two approaches were used.

[6] = rat primary hepatocytes, 20 microM
[7] = rat primary hepatocytes, 40 microM
[8] = rat primary hepatocytes, 2 microM
[9] = rat primary hepatocytes, 50 microM
[10] = rat primary hepatocytes, 1000 microM
[11] = rat primary hepatocytes, 100 microM
[12] = rat primary hepatocytes, 250 microM

For `Oc1c(Cl)c(Cl)c(Cl)c(Cl)c1Cl` [Pentachlorophenol], which “Zone 3 Necrosis Pathology” value (Rat primary hepatocytes; rat primary hepatocytes, 19 microM) is on record?
Its value is “Absent”.

Which “Zone 3 Necrosis Pathology” value (Rat primary hepatocytes; [6]) does the source give for `CCC(=O)O[C@H]1[C@H](O[C@@H]2[C@@H](C)[C@H](O[C@H]3C[C@@](C)(OC)[C@@H](O)[C@H](C)O3)[C@@H](C)C(=O)O[C@H](CC)[C@@](C)(O)[C@H](O)[C@@H](C)C(=O)[C@H](C)C[C@@]2(C)O)O[C@H](C)C[C@@H]1N(C)C.CCCCCCCCCCCCOS(=O)(=O)O` [Erythromycin Estolate (EE), Erythromycin Estolate] here?
The value was “Absent”.

With `NC(=S)c1ccccc1` [Thiobenzamide] as the molecule, how does the “Zone 3 Necrosis Pathology” value (Rat primary hepatocytes; [7]) read?
The value was “Present”.

Which “Zone 3 Necrosis Pathology” value (Rat primary hepatocytes; [8]) does the source give for `CC(=O)N1CCN(c2ccc(OCC3COC(Cn4ccnc4)(c4ccc(Cl)cc4Cl)O3)cc2)CC1` (stereo not shown) [Ketoconazole] here?
The value was “Absent”.

And the “Zone 3 Necrosis in vivo: Pathology Absent” value (rat livers [1]; male, liver, oral, 10 mg/kg/d)?
The value was 1, 3 d.

For `CN(C)C=O` [Dimethylformamide], which “Zone 3 Necrosis Pathology” value (Rat primary hepatocytes; rat primary hepatocytes, 5000 microM) is on record?
Its value is “Present”.

What about the “Zone 3 Necrosis in vivo: Pathology Present” value (rat livers [2]; male) of the same molecule?
Its value is 48 h.

For `CC(=O)Oc1ccccc1C(=O)O` [Aspirin], which “Zone 3 Necrosis Pathology” value (Rat primary hepatocytes; rat primary hepatocytes, 55.5 microM) is on record?
Its value is “Absent”.

For `CC(C)N(CCC(C(N)=O)(c1ccccc1)c1ccccn1)C(C)C` (stereo not shown) [Disopyramide], which “Zone 3 Necrosis Pathology” value (Rat primary hepatocytes; rat primary hepatocytes, 3 microM) is on record?
The value was “Absent”.

For `CO[C@H]1/C=C/O[C@@]2(C)Oc3c(C)c(O)c4c(O)c(c(/C=N/N5CCN(C)CC5)c(O)c4c3C2=O)NC(=O)/C(C)=C\C=C\[C@H](C)[C@H](O)[C@@H](C)[C@@H](O)[C@@H](C)[C@H](OC(C)=O)[C@@H]1C` [Rifampicin], which “Zone 3 Necrosis Pathology” value (Rat primary hepatocytes) is on record?
The value was “Absent”.

For `CCO` [Ethanol], which “Zone 3 Necrosis Pathology” value (Rat primary hepatocytes) is on record?
The value was “Absent”.

With `[N-]=[N+]=CC(=O)OC[C@H](N)C(=O)O` [Azaserine] as the molecule, how does the “Zone 3 Necrosis Pathology” value (Rat primary hepatocytes; rat primary hepatocytes, 500 microM) read?
The value was “Present”.

And the “Zone 3 Necrosis in vivo: Pathology Present” value (rat livers [1]; High 100 mg/kg (ip))?
Its value is 1,3 d.

For `CC(C)Cc1ccc(C(C)C(=O)O)cc1` (stereo not shown) [Ibuprofen], which “Zone 3 Necrosis Pathology” value (Rat primary hepatocytes; [9]) is on record?
The value was “Absent”.

For `CCN(CC)N=O` [Diethylnitrosamine], which hepatocellular carcinoma (liver [3]) is on record?
The hepatocellular carcinoma was “show evidence of producing hepatocellular carcinoma in rats”.

What about the “Zone 3 Necrosis Pathology” value (Rat primary hepatocytes; rat primary hepatocytes, 300 microM) of the same molecule?
The value was “Present”.

And the “Zone 3 Necrosis in vivo: Pathology Present” value (rat livers [2])?
Its value is 1, 3, 7 d.

Which results are given for `CN(C)N=O` [Dimethylnitrosamine]?
Zone 3 Necrosis Pathology (Rat primary hepatocytes; [10]): Present; Zone 3 Necrosis in vivo: Pathology Present (rat livers [2]): 7, 14 d

With `ClC1=C(Cl)C2(Cl)C3C(Cl)C(Cl)CC3C1(Cl)C2(Cl)Cl` (stereo not shown) [Chlordane] as the molecule, how does the “Zone 3 Necrosis Pathology” value (Rat primary hepatocytes; rat primary hepatocytes, 8 microM) read?
Its value is “Absent”.

What does the source list for `c1ccncc1` [Pyridine]?
Zone 3 Necrosis Pathology (Rat primary hepatocytes): Present; Zone 3 Necrosis in vivo: Pathology Present (rat livers [2]; male): 14 d

For `CCCCN(CCCC)N=O` [N-nitrosodibutylamine], which “Zone 3 Necrosis Pathology” value (Rat primary hepatocytes; rat primary hepatocytes, 200 microM) is on record?
Its value is “Absent”.

For `Nc1cc(N2CCCCC2)nc(N)[n+]1[O-]` [Minoxidil], which “Zone 3 Necrosis Pathology” value (Rat primary hepatocytes; rat primary hepatocytes, 0.166 microM) is on record?
The value was “Absent”.

For `C[C@H]1C(=O)O[C@@H]2CCN3CC=C(COC(=O)[C@](C)(O)[C@]1(C)O)[C@H]23` [Monocrotaline], which “Zone 3 Necrosis Pathology” value (Rat primary hepatocytes; [11]) is on record?
Its value is “Present”.

With `C[C@@H]1C[C@H]2[C@@H]3CCC4=CC(=O)C=C[C@]4(C)[C@@]3(F)[C@@H](O)C[C@]2(C)[C@@]1(O)C(=O)CO` [Dexamethasone] as the molecule, how does the “Zone 3 Necrosis Pathology” value (Rat primary hepatocytes) read?
The value was “Absent”.

For `O=NN1CCCCC1` [N-Nitrosopiperidine], which “Zone 3 Necrosis Pathology” value (Rat primary hepatocytes; rat primary hepatocytes, 3200 microM) is on record?
The value was “Present”.

Which “Zone 3 Necrosis Pathology” value (Rat primary hepatocytes) does the source give for `CC[N+](C)(C)Cc1ccccc1Br` [Bretylium] here?
Its value is “Absent”.

Which “Zone 3 Necrosis Pathology” value (Rat primary hepatocytes; [10]) does the source give for `O=NN(CCO)CCO` [Nitrosodiethanolamine] here?
The value was “Absent”.

For `CCSCC[C@H](N)C(=O)O` [Ethionine], which “Zone 3 Necrosis Pathology” value (Rat primary hepatocytes; [10]) is on record?
Its value is “Present”.

Which “Zone 3 Necrosis Pathology” value (Rat primary hepatocytes) does the source give for `Clc1cccc(Cl)c1N=C1NCCN1` [Clonidine] here?
The value was “Absent”.

With `OC(c1ccc(Cl)cc1)(c1cncnc1)c1ccccc1Cl` (stereo not shown) [Fenarimol] as the molecule, how does the “Zone 3 Necrosis Pathology” value (Rat primary hepatocytes; [6]) read?
Its value is “Absent”.

With `CC(=O)Nc1ccc(O)cc1` [Acetaminophen] as the molecule, how does the “zonal necrosis of the liver produced” value (liver [4]) read?
The value was “produce mainly zone 3 necrosis”.

For `COc1cc2nc(N3CCN(C(=O)c4ccco4)CC3)nc(N)c2cc1OC` [Prazosin], which “Zone 3 Necrosis Pathology” value (Rat primary hepatocytes) is on record?
The value was “Absent”.

Which “Zone 3 Necrosis Pathology” value (Rat primary hepatocytes; [11]) does the source give for `Clc1ccc(Cl)cc1` [1,4-dichlorobenzene] here?
Its value is “Absent”.

For `CO/N=C(\C(=O)N[C@@H]1C(=O)N2C(C(=O)O)=C(COC(N)=O)CS[C@H]12)c1ccco1` [Cefuroxime], which “Zone 3 Necrosis Pathology” value (Rat primary hepatocytes; rat primary hepatocytes, 224 microM) is on record?
The value was “Absent”.

For `CCC1(C)CC(=O)NC1=O` (stereo not shown) [Ethosuximide], which “Zone 3 Necrosis Pathology” value (Rat primary hepatocytes; [10]) is on record?
Its value is “Absent”.

With `CCC1(c2ccccc2)NC(=O)N(C)C1=O` (stereo not shown) [Mephenytoin] as the molecule, how does the “Zone 3 Necrosis Pathology” value (Rat primary hepatocytes; rat primary hepatocytes, 14.2 microM) read?
Its value is “Absent”.

For `OC(Cn1cncn1)(Cn1cncn1)c1ccc(F)cc1F` [Fluconazole], which “Zone 3 Necrosis Pathology” value (Rat primary hepatocytes) is on record?
Its value is “Absent”.

For `ClC(Cl)(Cl)Cl` [CCl4, carbon tetrachloride], which “zonal necrosis of the liver produced” value (liver [4]) is on record?
Its value is “produce mainly zone 3 necrosis”.

For `Brc1ccccc1` [Bromobenzene], which “Zone 3 Necrosis Pathology” value (Rat primary hepatocytes; rat primary hepatocytes, 3000 microM) is on record?
Its value is “Present”.

And the “Zone 3 Necrosis in vivo: Pathology Present” value (rat livers [2]; male)?
Its value is 12, 48 h.

For `Cc1ccc2cc3c(ccc4ccccc43)c3c2c1CC3` [3-methylcholanthrene], which “Zone 3 Necrosis Pathology” value (Rat primary hepatocytes; [7]) is on record?
Its value is “Absent”.

Which “Zone 3 Necrosis Pathology” value (Rat primary hepatocytes; rat primary hepatocytes, 38 microM) does the source give for `CC(=O)[C@H]1CC[C@H]2[C@@H]3CC=C4C[C@@H](O)CC[C@]4(C)[C@H]3CC[C@]12C` [Pregnenolone] here?
The value was “Absent”.

With `c1cc[n+]2c(c1)-c1cccc[n+]1CC2` [Diquat] as the molecule, how does the “Zone 3 Necrosis in vivo: Pathology Absent” value (rat livers [2]; male) read?
Its value is 6, 12, 24, 48 h.

What does the source list for `CCOC(=O)C(C)(C)Oc1ccc(Cl)cc1` [Clofibrate]?
hypertrophy in vivo (liver [5]): produced hypertrophy in vivo; Zone 3 Necrosis Pathology (Rat primary hepatocytes; [11]): Absent

For `O=c1ccc2ccccc2o1` [Coumarin], which “Zone 3 Necrosis Pathology” value (Rat primary hepatocytes; [12]) is on record?
The value was “Present”.

What about the “Zone 3 Necrosis in vivo: Pathology Present” value (rat livers [1]; High 150 mg/kg/d) of the same molecule?
Its value is 3 d.

Which “Zone 3 Necrosis Pathology” value (Rat primary hepatocytes; [8]) does the source give for `NCC1(CC(=O)O)CCCCC1` [Gabapentin] here?
Its value is “Absent”.

Which “Zone 3 Necrosis Pathology” value (Rat primary hepatocytes; rat primary hepatocytes, 1.6 microM) does the source give for `Cc1cc(N=Nc2ccccc2)ccc1N(C)C` [3-methyl-4-(dimethylamino)azobenzene] here?
The value was “Absent”.

For `COc1cccc2c1C(=O)c1c(O)c3c(c(O)c1C2=O)C[C@@](O)(C(=O)CO)C[C@@H]3O[C@H]1C[C@H](N)[C@H](O)[C@H](C)O1` [Doxorubicin], which “Zone 3 Necrosis Pathology” value (Rat primary hepatocytes) is on record?
Its value is “Absent”.

For `Brc1cccc(Br)c1` [1,3-Dibromobenzene], which “Zone 3 Necrosis Pathology” value (Rat primary hepatocytes; [12]) is on record?
The value was “Present”.

What about the “Zone 3 Necrosis in vivo: Pathology Present” value (rat livers [2]; male) of the same molecule?
Its value is 1 d.

With `CCCC[C@@H](C)[C@@H](OC(=O)C[C@@H](CC(=O)O)C(=O)O)[C@H](C[C@@H](C)C[C@H](O)CCCC[C@@H](O)C[C@H](O)[C@H](C)N)OC(=O)C[C@@H](CC(=O)O)C(=O)O` [Fumonisin B(1)] as the molecule, how does the hepatocellular carcinoma (liver [3]) read?
Its hepatocellular carcinoma is “show evidence of producing hepatocellular carcinoma in rats”.

Which “Zone 3 Necrosis Pathology” value (Rat primary hepatocytes; [9]) does the source give for `ClC1(Cl)C2(Cl)C3(Cl)C4(Cl)C(Cl)(Cl)C5(Cl)C3(Cl)C1(Cl)C5(Cl)C24Cl` (stereo not shown) [Mirex] here?
Its value is “Absent”.

For `CC(=N)S` [Thioacetamide], which “Zone 3 Necrosis Pathology” value (Rat primary hepatocytes; rat primary hepatocytes, 2000 microM) is on record?
Its value is “Present”.

Which “Zone 3 Necrosis Pathology” value (Rat primary hepatocytes; rat primary hepatocytes, 3750 microM) does the source give for `O=NN1CCOCC1` [N-nitrosomorpholine] here?
The value was “Present”.

With `[Mo]` [Molybdenum] as the molecule, how does the “Zone 3 Necrosis Pathology” value (Rat primary hepatocytes; [9]) read?
Its value is “Present”.

And the “Zone 3 Necrosis in vivo: Pathology Present” value (rat livers [1]; High 500 mg/kg/d)?
The value was 3 d.

Which “Zone 3 Necrosis Pathology” value (Rat primary hepatocytes; [6]) does the source give for `[Ce+3].[Cl-].[Cl-].[Cl-]` [Cerium (III) Chloride] here?
Its value is “Present”.
